Read-outs that look alike come from different tables or passages of the source.
Experiments:
[1] = target: T1, Human C17,20-lyase (microsomal fraction from human testis) (Homo sapiens, UniProt P05093); test: CYP17 enzymatic assay (% inhibition at 10 nM), version 2 (Biological Example 6); assay type: biochemical; details: method: tested at 100 nM; human testis microsome, radiometric
T1 construct: using microsomal fraction from human testis (Celsis Cat #S00110) as the enzyme source; tissue Celsis S00110; host or cells: human testis microsomal fraction
T1 sequence (P05093 1-508): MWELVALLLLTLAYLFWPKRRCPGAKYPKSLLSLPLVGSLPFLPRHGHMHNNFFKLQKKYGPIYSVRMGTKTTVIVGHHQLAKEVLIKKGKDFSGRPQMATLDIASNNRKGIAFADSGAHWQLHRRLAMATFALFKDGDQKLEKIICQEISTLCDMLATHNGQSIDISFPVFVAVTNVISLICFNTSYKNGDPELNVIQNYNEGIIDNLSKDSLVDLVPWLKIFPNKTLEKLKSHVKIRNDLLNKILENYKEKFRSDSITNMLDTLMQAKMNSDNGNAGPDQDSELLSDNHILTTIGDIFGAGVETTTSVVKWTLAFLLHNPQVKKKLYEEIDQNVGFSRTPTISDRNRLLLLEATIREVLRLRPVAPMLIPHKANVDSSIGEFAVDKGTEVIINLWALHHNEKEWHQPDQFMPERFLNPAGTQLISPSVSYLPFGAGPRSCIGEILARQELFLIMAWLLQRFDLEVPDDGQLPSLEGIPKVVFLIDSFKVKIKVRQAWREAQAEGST
Protocol: Human C17,20-lyase enzymatic assays were conducted in 200 μL volume in Eppendorf tubes, using microsomal fraction from human testis (Celsis Cat #S00110) as the enzyme source. Total protein concentration of the microsomal fraction is estimated to be 20 mg/ml. Prior to adding the microsomal fractions, reaction mixtures containing 50 mM NaPO4 buffer (pH 7.4), 1 mM MgCl2, 0.1 mM EDTA, 0.1 mM dithiothreitol, 0.5 mM NADPH, 4 μM 17α-hydroxypregnenolone, 1 μL of [21-^3H]-17α-hydroxypregnenolone (American Radiolabeled Chemicals, ART #1663, Specific activity=50-60 Ci/mmol), and the appropriate testing compounds were incubated for 5 minutes in a 37° C. shaking water bath (150 rpm). Following the 5-minute pre-incubation, 5 μL of human testis microsome was added to each of the reaction mixtures (except for the Negative Controls, which received 5 μL of H2O). After 30-minute incubation at 37° C. in shaking water bath (150 rpm), reactions were stopped by addition of 200 μL of cold chloroform and vigorous shaking for 30 minutes. Tubes were centrifuged at 1,500×g for 15 minutes at 4° C., and the aqueous phase was transferred to fresh Eppendorf tubes. Forty microliters (40 μL) of 8.5% charcoal (Sigma Cat #C6241) suspension was added to each tube, mixed well and incubated at 4° C. for 30 minutes. Tubes were centrifuged at 1,500×g for 15 minutes at 4° C., and 100 μL upper layer from each tube was transferred into each well of a 96-well isoplate (PerkinElmer Cat #6005040). Finally, 100 μL of Optiphase supermix scintillation fluid (PerkinElmer Cat #1200430) was added to each well, mixed by pippeting up and down 3 times. Radioactivity was measured with MicroBeta Trilux Counter using tritium program.
All testing compounds were dissolved and diluted in methanol. Two microliters (2 μL) of the properly diluted test compound was added to each reaction to reach the desired concentration. In Negative control (no enzyme activity) and Activity control (100% enzyme activity), 2 μL of methanol was added. Each data point was tested in duplicate. […]
For compounds of further interest, IC50 value was generated by measuring the inhibition rate at 5 concentrations and using Prism software under “non-linear regression analysis.”

[2] = Rat liver microsome stability assay (Biological Example 8a); details: liver microsomes, pH 7.4
[3] = target: T2, CYP17 (human testicular microsome) (Homo sapiens, UniProt P05093); test: CYP17 enzymatic assay (% inhibition at 10 nM), version 1 (Biological Example 5); assay type: biochemical; details: 10 nM compound, DHEA by ELISA, read-out: Biological Example No. 5: CYP17 percent inhibition at 10 nM (version 1)
T2 construct: using microsomal fraction from human testis (Celsis Cat #S00110) as the enzyme source; tissue Celsis S00110; host or cells: human testis microsomal fraction
T2 sequence (P05093 1-508): T1 sequence (P05093 1-508)

in vitro [4] = details: rat, microsomes, pH 7.4
[5] = target: T3, Cyp21 enzyme (Human HEK 293-Cyp21 stable transfected cells) (Homo sapiens, UniProt P08686); test: CYP21-HEK293 enzymatic assay (% inhibition at 100 nM) (Biological Example 10); assay type: cell-based; details: HEK 293-Cyp21 cells
T3 construct: expressed in transfected cells
T3 sequence (P08686 1-495): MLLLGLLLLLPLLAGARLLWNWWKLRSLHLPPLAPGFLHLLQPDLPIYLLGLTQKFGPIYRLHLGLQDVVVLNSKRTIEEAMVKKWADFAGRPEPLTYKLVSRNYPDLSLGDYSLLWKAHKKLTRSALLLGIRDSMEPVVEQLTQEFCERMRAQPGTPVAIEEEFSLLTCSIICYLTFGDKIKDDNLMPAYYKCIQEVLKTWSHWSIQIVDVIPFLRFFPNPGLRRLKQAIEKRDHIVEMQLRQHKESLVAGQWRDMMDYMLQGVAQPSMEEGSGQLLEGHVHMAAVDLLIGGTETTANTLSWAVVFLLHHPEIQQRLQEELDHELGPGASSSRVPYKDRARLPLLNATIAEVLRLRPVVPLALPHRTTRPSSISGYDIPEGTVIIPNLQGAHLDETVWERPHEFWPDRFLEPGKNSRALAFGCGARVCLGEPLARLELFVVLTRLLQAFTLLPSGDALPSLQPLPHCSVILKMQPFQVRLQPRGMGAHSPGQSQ
In short: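 Percent inhibition at 100 nM: DOC in conditioned medium was read by ELISA at 450 nm and quantified from a standard curve. Stably transfected human Cyp21 HEK293 cells were pretreated 5 h with compound or 1% methanol mock, then given 10 μM final progesterone for 20 h at 37 °C.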

in vitro [6] = details: human, microsomes, pH 7.4
[7] = target: T2, CYP17 (human testicular microsome); test: CYP17 enzymatic assay (IC50) (Biological Example 4); assay type: biochemical; details: human testicular microsome, DHEA by ELISA; read-out: Biological Example No. 4: CYP17 enzymatic assay IC50
[8] = Human liver microsome stability assay (Biological Example 8b); details: liver microsomes, pH 7.4
[9] = system: rat Cyp11B enzyme (rat adrenal mitochondria); test: CYP11B enzymatic assay (% inhibition at 100 nM) (Biological Example 9); assay type: biochemical; details: compound at 100 nM
In short: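 Sprague Dawley rat adrenal mitochondria were incubated with compound at 100 nM, 0.5 mM NADPH and 0.1 μM 11-deoxycortisol (pH 7.4 Tris buffer) for 60 min at 37 °C. Cortisol was measured by ELISA and corrected by subtracting the no-NADPH background. % inhibition is relative to the no-compound reaction.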

[10] = target: T2, CYP17 (human testicular microsome); test: CYP17 enzymatic assay (% inhibition at 1 nM) (Biological Example 12); assay type: biochemical

Row | half-life at 1 μM [2] | SMILES | Biological Example No. 6: CYP17 percent inhibition (version 2) [1] | half-life at 1 μM (in vitro [6]) | also measured
1 | 1 to 10 min | C[C@]12CCC3C(CCN4C(=O)CC=CC[C@]34C)C1CC=C2c1cccnc1 (stereo partly drawn) [Compound 34, (11aR,13aS)-11a,13a-dimethyl-1-(pyridin-3-yl)-3b,4,5,8,11,11a,11b,12,13,13a-decahydro-3H-azepino[2,1-a]cyclopenta[f]isoquinolin-7(3aH)-one] | F (F means the compound had a percent inhibition of greater than or equal to 38%) |  | 
2 |  | C[C@]12CCC3C(CCN4C(=O)C=CCC[C@]34C)C1CC=C2c1cccnc1 (stereo partly drawn) [Compound 35, (11aR,13aS)-11a,13a-dimethyl-1-(pyridin-3-yl)-3b,4,5,10,11,11a,11b,12,13,13a-decahydro-3H-azepino[2,1-a]cyclopenta[f]isoquinolin-7(3aH)-one] | F (F means the compound had a percent inhibition of greater than or equal to 38%) |  | 
3 |  | C[C@]12CCCCC1=CC[C@@H]1[C@@H]2CC[C@]2(C)C(c3cccnc3)=CC[C@@H]12 [Compound 67, 3-((10R,13S)-10,13-dimethyl-2,3,4,7,8,9,10,11,12,13,14,15-dodecahydro-1H-cyclopenta[a]phenanthren-17-yl)pyridine] |  |  | inhibition at 0.01 µM [3]: 50 to 80%; half-life at 1 μM (in vitro [4]): 1 to 10 min
4 |  | COc1cncc(C2=CC=C3[C@@H]4CCC5=CC(=O)CC[C@]5(C)[C@H]4CC[C@]23C)c1 [Compound 83, (10R,13S)-17-(5-methoxypyridin-3-yl)-10,13-dimethyl-6,7,8,9,10,11,12,13-octahydro-1H-cyclopenta[a]phenanthren-3(2H)-one] |  | 1 to 50 min | inhibition at 0.01 µM [3]: 50 to 80%; inhibition at 0.1 µM ([5]; 100 nM compound, read-out: Biological Example No. 10: CYP21-HEK293 percent inhibition at 100 nM): ≥ 30%
5 | 10 to 60 min | C[C@]12CCOC(=O)C[C@@H]1CC[C@@H]1[C@@H]2CC[C@]2(C)C(c3cccnc3)=CC[C@@H]12 [Compound 112, (1S,2S,8S,12S,16S,11R)-2,16-dimethyl-15-(3-pyridyl)-5-oxatetracyclo[9.7.0.0^2,8.0^12,16]octadec-14-en-6-one] | F (F means the compound had a percent inhibition of greater than or equal to 38%) |  | IC50 [7]: < 11 nM; half-life at 1 μM [8]: 1 to 50 min
6 | 10 to 60 min | C[C@]12CCC(=O)OC[C@@H]1CC[C@@H]1[C@@H]2CC[C@]2(C)C(c3cccnc3)=CC[C@@H]12 [Compound 113, (1S,12S,16S,2R,8R,11R)-2,16-dimethyl-15-(3-pyridyl)-6-oxatetracyclo[9.7.0.0^2,8.0^12,16]octadec-14-en-5-one] | F (F means the compound had a percent inhibition of greater than or equal to 38%) |  | IC50 [7]: < 11 nM; half-life at 1 μM [8]: 1 to 50 min
7 |  | COc1cncc(C2=CC[C@H]3[C@@H]4CC[C@H]5COC(=O)CC[C@]5(C)[C@H]4CC[C@]23C)c1 [Compound 115, (1S,12S,16S,2R,8R,11R)-15-(5-methoxy(3-pyridyl))-2,16-dimethyl-6-oxatetracyclo[9.7.0.0^2,8.0^12,16]octadec-14-en-5-one] | F (F means the compound had a percent inhibition of greater than or equal to 38%) |  | 
8 |  | CCOc1cncc(C2=CC[C@H]3[C@@H]4CC[C@H]5COC(=O)CC[C@]5(C)[C@H]4CC[C@]23C)c1 [Compound 117, (1S,12S,16S,2R,8R,11R)-15-(5-ethoxy(3-pyridyl))-2,16-dimethyl-6-oxatetracyclo[9.7.0.0^2,8.0^12,16]octadec-14-en-5-one] | G (G means the compound had a percent inhibition of less than 38% but greater than or equal to 3%) |  | 
9 |  | CCNC(=O)NC1CC[C@@]2(C)C(=CCC3C2CC[C@]2(C)C(n4ccnc4)=CCC32)C1 (stereo partly drawn) [Compound 242, 1-((10R,13S)-17-(1H-imidazol-1-yl)-10,13-dimethyl-2,3,4,7,8,9,10,11,12,13,14,15-dodecahydro-1H-cyclopenta[a]phenanthren-3-yl)-3-ethylurea] |  | 1 to 50 min | CYP11B enzymatic assay % inhibition at 100 nM (Biological Example No. 9) [9]: U (U means the compound had a percent inhibition of greater than or equal to 32%); inhibition at 0.1 µM ([5]; compound at 100 nM, read-out: CYP21-HEK293 enzymatic assay % inhibition at 100 nM (Biological Example No. 10)): < 30%; inhibition at 0.001 µM ([10]; compound at 1 nM, read-out: CYP17 enzymatic assay % inhibition at 1 nM (Biological Example No. 12)): > 50%
10 |  | C[C@@]1(O)CC[C@@]2(C)C(=CCC3C2CC[C@]2(C)C(c4cncc(F)c4)=CCC32)C1 (stereo partly drawn) [Compound 269, (3R,10R,13S)-17-(5-fluoropyridin-3-yl)-3,10,13-trimethyl-2,3,4,7,8,9,10,11,12,13,14,15-dodecahydro-1H-cyclopenta[a]phenanthren-3-ol] |  | > 50 min | inhibition at 0.001 µM ([10]; test compound at 1 nM, read-out: CYP17 enzymatic assay percent inhibition at 1 nM (Biological Example No. 12)): > 50%
